This is an account of results in US4308259A, “Penicillin derivatives” (Beecham Group Limited, priority 1979, dated 1981).

Holding throughout (type): cell-based
In experiment [1] the test system is B. subtilis. As to the kind of experiment: MIC against B. subtilis. Particulars: Bacillus subtilis.
Experiment [2] deals with E. coli JT 4. As to the kind of experiment: MIC (antibacterial activity) against E. coli JT 4. Particulars: Escherichia coli, JT4.
Experiment [3] deals with S. faecalis I. As to the kind of experiment: MIC against S. faecalis I. Particulars: Enterococcus faecalis.
The test system of experiment [4] is P. rettgeri. As to the kind of experiment: MIC against P. rettgeri. Particulars: Providencia rettgeri.
Experiment [5] has as its system Ps. aeruginosa NCTC 10662. As to the kind of experiment: MIC against Ps. aeruginosa NCTC 10662.
In experiment [6] the test system is P. morganii. Put plainly: MIC against P. morganii. Particulars: Morganella morganii.
Experiment [7] has as its system S. aureus Oxford. Put plainly: MIC against S. aureus Oxford. Particulars: Staphylococcus aureus.
Experiment [8] deals with S. pyogenes CN 10. Put plainly: MIC against S. pyogenes CN 10. Particulars: Streptococcus pyogenes, CN10.
Experiment [9] deals with K. aerogenes A. Put plainly: MIC against K. aerogenes A. Particulars: Klebsiella aerogenes.
Experiment [10] has as its system S. marcescens US 32. As to the kind of experiment: MIC against S. marcescens US 32. Particulars: Serratia marcescens, US32.
Experiment [11] has as its system P. mirabilis C 977. As to the kind of experiment: MIC against P. mirabilis C 977. Particulars: Proteus mirabilis, C977.
For experiment [12], the system named is E. coli NCTC 10418. Put plainly: MIC against E. coli NCTC 10418. Particulars: Escherichia coli, NCTC10418.
In experiment [13] the test system is P. mirabilis 889. Put plainly: MIC against P. mirabilis 889. Particulars: Proteus mirabilis.
The test system of experiment [14] is E. cloacae N1. As to the kind of experiment: MIC against E. cloacae N1. Particulars: Enterobacter cloacae.
Experiment [15] deals with Ps. aeruginosa Dalgleish. As to the kind of experiment: MIC against Ps. aeruginosa Dalgleish. Particulars: Pseudomonas aeruginosa; Ps. aeruginosa Dalgleish 10^-2.
The test system of experiment [16] is N. catarrhalis 1502. As to the kind of experiment: MIC against N. catarrhalis 1502.
The test system of experiment [17] is S. aureus Russell. As to the kind of experiment: MIC against S. aureus Russell. Particulars: Staphylococcus aureus.
The subject of experiment [18] is E. coli JT 425. As to the kind of experiment: MIC against E. coli JT 425. Particulars: Escherichia coli, JT425.
The mark [19] stands for this setting: Pseudomonas aeruginosa, NCTC10662, Ps. aeruginosa NCTC 10662 10^-2, read-out: MIC.
Where [20] appears, read: Pseudomonas aeruginosa, NCTC10662, Ps. aeruginosa NCTC 10662, read-out: MIC.

Counter-ions that a name gives are not always drawn. Like-named read-outs stand apart in the source and are kept apart here. A value given as a limit tells only on which side of the number the result lay.

As to `CO[C@@]1(NC(=O)C(c2ccccc2F)S(=O)(=O)O)C(=O)N2[C@@H](C(=O)O)C(C)(C)S[C@@H]21` (stereo partly drawn) [Example 9, Disodium 6,β-[2-(2-fluorophenyl)-2-sulphoacetamido]-6,α-methoxypenicillanate], the MIC (commonly the lowest concentration that inhibits growth of the organism) in [1] is 25 µg/mL; in [2], 25 µg/mL; in [3] it was above 100 µg/mL; in experiment [4] (P. rettgeri, read-out: MIC), 5 µg/mL; in experiment [5] (setting [19]), 100 µg/mL; in experiment [5] (setting [20]), above 100 µg/mL. Also, the MIC in experiment [6] came out at 5 µg/mL; in experiment [7] it was 25 µg/mL; in experiment [8], 5 µg/mL; in [9], 2.5 µg/mL; in [10], 50 µg/mL; in experiment [11] it was 5 µg/mL. In addition, the MIC is 10 µg/mL in experiment [12]; 5 µg/mL in experiment [13]; 2.5 µg/mL in experiment [14]; 100 µg/mL in experiment [15]; below 0.02 µg/mL in [16]; 50 µg/mL in experiment [17]. In addition, the MIC in [18] (E. coli JT 425, read-out: MIC) was found to be 10 µg/mL.

As for `CO[C@@]1(NC(=O)C(c2ccc(O)cc2)S(=O)(=O)O)C(=O)N2[C@@H](C(=O)O)C(C)(C)S[C@@H]21` (stereo partly drawn) [Example 8, Disodium 6,β-[2-(4-hydroxyphenyl)-2-sulphoacetamido]-6,α-methoxypenicillanate], the MIC in experiment [1] was above 100 µg/mL; in [2], 25 µg/mL; in experiment [3], above 100 µg/mL; in experiment [4] (P. rettgeri, read-out: MIC), 10 µg/mL; in experiment [5] (setting [19]), 50 µg/mL; in experiment [5] (setting [20]), 50 µg/mL. For the same molecule, the minimal inhibitory concentration (MIC) was 25 µg/mL in experiment [6]; above 100 µg/mL in experiment [7]; 25 µg/mL in experiment [8]; 10 µg/mL in experiment [9]; 100 µg/mL in experiment [10]; 25 µg/mL in experiment [11]. Moreover, the MIC was 25 µg/mL in [12]; 25 µg/mL in [13]; 10 µg/mL in [14]; 25 µg/mL in experiment [15]; 0.2 µg/mL in experiment [16]; above 100 µg/mL in experiment [17]. Moreover, in experiment [18] (E. coli JT 425, read-out: MIC), the MIC came out at 25 µg/mL.

As for `CO[C@@]1(NC(=O)C(c2ccccc2)S(=O)(=O)O)C(=O)N2[C@@H](C(=O)O)C(C)(C)S[C@@H]21` (stereo partly drawn) [Example 1, Disodium 6,α-methoxy-6,β -(2-phenyl-2-sulphoacetamido) penicillanate], the MIC in experiment [1] was above 100 µg/mL; in experiment [2], 25 µg/mL; in [3], above 100 µg/mL; in [4] (P. rettgeri, read-out: MIC), 10 µg/mL; in [5] (setting [19]), above 100 µg/mL; in [5] (setting [20]), above 100 µg/mL. In addition, the MIC is 10 µg/mL in experiment [6]; above 100 µg/mL in experiment [7]; 50 µg/mL in experiment [8]; 2.5 µg/mL in [9]; above 100 µg/mL in experiment [10]; 5 µg/mL in [11]. Moreover, the MIC in experiment [12] was 25 µg/mL; in experiment [13] it was 5 µg/mL; in [14] it was 25 µg/mL; in experiment [15], 50 µg/mL; in experiment [17] it was above 100 µg/mL; in experiment [18] (E. coli JT 425, read-out: MIC), 10 µg/mL.

Regarding `CO[C@@]1(NC(=O)C(c2ccc(N)cc2)S(=O)(=O)O)C(=O)N2[C@@H](C(=O)O)C(C)(C)S[C@@H]21` (stereo partly drawn) [Example 4, Disodium 6,β-[2-(4-aminophenyl)-2-sulphoacetamido]-6,α-methoxy-penicillanate], the MIC in experiment [1] was above 100 µg/mL; in experiment [2], 10 µg/mL; in experiment [3], above 100 µg/mL; in experiment [4] (P. rettgeri, read-out: MIC), 6 µg/mL; in [5] (setting [19]), 25 µg/mL; in experiment [5] (setting [20]), 25 µg/mL. Moreover, the MIC in experiment [6] was 5 µg/mL; in experiment [7], above 100 µg/mL; in experiment [8], 25 µg/mL; in experiment [9], 2.5 µg/mL; in experiment [10] it was 25 µg/mL; in [11], 5 µg/mL. Moreover, the minimal inhibitory concentration (MIC) was 10 µg/mL in experiment [12]; 10 µg/mL in experiment [13]; 5 µg/mL in [14]; 25 µg/mL in [15]; 0.05 µg/mL in experiment [16]; above 100 µg/mL in [17]. Moreover, the minimum inhibitory concentration (MIC) in experiment [18] (E. coli JT 425, read-out: MIC) was 10 µg/mL.

Consider `CO[C@@]1(NC(=O)C(c2ccccc2)P(=O)(O)OC)C(=O)N2[C@@H](C(=O)O)C(C)(C)S[C@@H]21` (stereo partly drawn) [Example 6, 6,α-Methoxy-6,β-(2-O-methylphosphono-2-phenylacetamido)penicillanic acid disodium salt], for which the MIC is above 500 µg/mL in experiment [1]; 125 µg/mL in experiment [2]; above 500 µg/mL in experiment [3]; 12.5 µg/mL in experiment [4]; 500 µg/mL in [5] (Ps. aeruginosa NCTC 10662 10^-2); 500 µg/mL in [5] (setting [20]). The MIC in experiment [6] was 50 µg/mL; in experiment [7] it was above 500 µg/mL; in experiment [8] it was above 500 µg/mL; in experiment [9] it was 12.5 µg/mL; in experiment [10], 125 µg/mL; in [11], 25 µg/mL. In addition, the MIC in experiment [12] is 50 µg/mL; in [13], 50 µg/mL; in [14], 12.5 µg/mL; in experiment [15], 250 µg/mL; in experiment [16], 0.5 µg/mL; in experiment [17], above 500 µg/mL. This molecule also displayed an MIC in experiment [18] of 50 µg/mL.
